Drawing on US20240400583A1, “TRICYCLIC SULFAMIDES AND SULTAMS” (Merck Sharp & Dohme LLC, priority 2021, published 2024), this text covers IC50 and EC50 for 20 molecules.

The target in experiment [1] is T1, DCAF15 (Homo sapiens, UniProt Q66K64, DEL276-383).
T1 construct: made in house; host or cells: Sf9 (baculovirus, Bac-to-Bac)
The experiment is described as follows: DCAF15 Displacement Assay (displacement of probe PT7795, FRET). It is filed as binding. The following applies: competition with 300 nM PT7795 on DDA1-DDB1ΔB-DCAF15Δpro triplex, 18 hours incubation, FRET 665/615. From the text: (§1) Proteins used for the assays were as follows: Human DDA1 (UniProt:Q9BW61), DDB1 (UniPro:Q16531), and DCAF15 (UniProt:Q66K64) coding sequences were cloned into pFastBac1 vectors and were co-expressed in Sf9 cells using Bac-to-Bac baculovirus expression system (Thermo Fisher Scientific). The expression construct for DCAF15 includes a N-terminal His6-tag to facilitate the purification. The atrophin-1 homology region of DCAF15 (amino acid residues 276-383) was excised (Apro, originally to facilitate crystallization). Triplex of DDA1-DDB1ΔB-DCAF15Apro, which has the BPB domain (aa 396 to 705) excised and replaced with a GNGNSG linker, was used in all the kinetic measurements because of the higher yield. R^1R^2 of RBM39 (aa 150 to 331; UniProt: Q14498) contained a C-terminal FLAG tag used in the DCAF15/RBM39 complex formation assay. DCAF15 Displacement Assay (Displacement FRET KD)
The previously described procedure was followed (See X. Du, et al., “Structural Basis and Kinetic Pathway of RBM39 Recruitment to DCAF15 by a Sulfonamide Molecular Glue E7820”, Structure, 27, 1625-1633.e3, 2019). Synthesis of the probe PT7795 is described in the article.
Binding of PT7795 to DDA1-DDB1ΔB-DCAF15Apro was measured by the FRET signal between europium-labeled anti-His antibody (AD0205, Perkin Elmer) that is associated with His-tagged DCAF15 and ALX647 moiety in PT7795. The concentration of PT7795 was varied from 2.3 nM to 1000 nM in 16 wells, each containing 25 mM HEPES pH7.5, 100 mM NaCl, 0.1 mg/ml BSA, 0.005% Tween 20, 0.5 mM TCEP, 4% DMSO, 0.5 nM europium-labeled anti-His antibody, and 10 nM triplex of DDA1-DDB1 DB-DCAF15 Apro. After equilibrating for 2-3 hours at 4° C., the plate was removed from the incubator, briefly spun, then read on a Spark 10 (Tecan) at the excitation/emission wavelength of 340 nm/615 nm and 340 nm/665 nm. To obtain Kd, the ratio of 665/615 readings was fitted to Equation 1, where F stands for the ratio of 665/615 […].
Binding of compounds in this disclosure to DCAF15 was measured in a competition by the displacement of PT7795. The concentration of PT7795 was kept at 300 nM while the concentration of a compound was varied from 0.01 to 100 μM. The incubation time was increased to 18 hours for enhanced signal to noise level. To obtain IC50, the ratio of 665/615 readings was fitted to Equation 2, where n is Hill slope.

The target in experiment [2] is T2, DCAF15 RBM39 ternary complex (Homo sapiens, UniProt Q14498+Q66K64, DEL276-383).
T2 construct: RBM39 (aa 150 to 331; UniProt: Q14498); TEV cleavage site (pGEX4T3 vector); made in house; host or cells: Sf9 (baculovirus) for the triplex; E. coli for the RBM39 fragment according to b294
The experiment is described as follows: DCAF15 RBM39 Ternary Complex Formation Assay. It counts as binding. Conditions: apparent EC50 for compound-induced complex formation, 10 nM DCAF15 triplex, 50 nM RBM39 R1R2, FRET 665/615.
From the text: as §1
His-tagged DDA1-DDB1ΔB-DCAFISΔpro triplex and RIR2 with a C-terminal FLAG were used in the assay and compound-induced complex formation was monitored through resonance transfer between europium-labeled anti-His antibody and APC-labeled anti-FLAG antibody (AD0059F, Perkin Elmer).

By IC50 is commonly meant the concentration needed to halve the response being measured. As a reminder, the EC50 is the midpoint of the concentration-response curve. Consider `COCCOCCCN1Cc2cc(Cl)c3c(Cl)c[nH]c3c2NS1(=O)=O` [Compound 1, 6,7-dichloro-3-(3-(2-methoxyethoxy)propyl)-1,3,4,9-tetrahydro-[1,2,6]thiadiazino[4,3-g]indole 2,2-dioxide], for which the IC50 in experiment [1] worked out at 1420 nM. Moreover, the EC50 in experiment [2] came to 12.7 nM.
The molecule `COCCOCCOCCCN1Cc2cc(Cl)c3c(Cl)c[nH]c3c2NS1(=O)=O` [Compound 2, 6,7-dichloro-3-(3-(2-(2-methoxyethoxy)ethoxy)propyl)-1,3,4,9-tetrahydro-[1,2,6]thiadiazino[4,3-g]indole 2,2-dioxide] returned an IC50 in experiment [1] of 25000 nM. For the same molecule, in experiment [2], the EC50 was found to be 247 nM.
The corresponding values for `COCCCCCOCCCN1Cc2cc(Cl)c3c(Cl)c[nH]c3c2NS1(=O)=O` [Compound 3, 6,7-dichloro-3-(3-((5-methoxypentyl)oxy)propyl)-1,3,4,9-tetrahydro-[1,2,6]thiadiazino[4,3-g]indole 2,2-dioxide] are 2500 nM and 21.4 nM.
The corresponding values for `COCCOCC(=O)N1CCC(CN2Cc3cc(Cl)c4c(Cl)c[nH]c4c3NS2(=O)=O)CC1` [Compound 4, 1-(4-((6,7-dichloro-2,2-dioxido-4,9-dihydro-[1,2,6]thiadiazino[4,3-g]indol-3(1H)-yl)methyl)piperidin-1-yl)-2-(2-methoxyethoxy)ethan-1-one] are 200 nM and 4.3 nM.
Take `COCCOCC(=O)N1CCCC(CN2Cc3cc(Cl)c4c(Cl)c[nH]c4c3NS2(=O)=O)C1` (stereo not shown) [Compound 5, 1-(3-((6,7-dichloro-2,2-dioxido-4,9-dihydro-[1,2,6]thiadiazino[4,3-g]indol-3(1H)-yl)methyl)piperidin-1-yl)-2-(2-methoxyethoxy)ethan-1-one]: the IC50 in experiment [1] stood at 98 nM. Moreover, the EC50 in experiment [2] is 7.8 nM.
In experiment [1], `COCCCCC(=O)N1CCC(CN2Cc3cc(Cl)c4c(Cl)c[nH]c4c3NS2(=O)=O)CC1` [Compound 6, 1-(4-((6,7-dichloro-2,2-dioxido-4,9-dihydro-[1,2,6]thiadiazino[4,3-g]indol-3(1H)-yl)methyl)piperidin-1-yl)-5-methoxypentan-1-one] yielded a concentration for half-maximal inhibition (IC50) of 156 nM. Moreover, the EC50 in experiment [2] was determined as 4.3 nM.
The corresponding values for `COCCCCC(=O)N1CCCC(CN2Cc3cc(Cl)c4c(Cl)c[nH]c4c3NS2(=O)=O)C1` (stereo not shown) [Compound 7, 1-(3-((6,7-dichloro-2,2-dioxido-4,9-dihydro-[1,2,6]thiadiazino[4,3-g]indol-3(1H)-yl)methyl)piperidin-1-yl)-5-methoxypentan-1-one] are 480 nM and 10.6 nM.
The corresponding values for `CC(C)(C)OC(=O)NCCCCC(=O)N1CCC(CN2Cc3cc(Cl)c4c(Cl)c[nH]c4c3NS2(=O)=O)CC1` [Compound 8, tert-butyl (5-(4-((6,7-dichloro-2,2-dioxido-4,9-dihydro-[1,2,6]thiadiazino[4,3-g]indol-3(1H)-yl)methyl)piperidin-1-yl)-5-oxopentyl)carbamate] are 261 nM and 4.5 nM.
`NCCCCC(=O)N1CCC(CN2Cc3cc(Cl)c4c(Cl)c[nH]c4c3NS2(=O)=O)CC1` [Compound 9, 5-amino-1-(4-((6,7-dichloro-2,2-dioxido-4,9-dihydro-[1,2,6]thiadiazino[4,3-g]indol-3(1H)-yl)methyl)piperidin-1-yl)pentan-1-one] showed an IC50 in experiment [1] of 244 nM. Moreover, in experiment [2], the EC50 came out at 4.9 nM.
`CNC(=O)c1[nH]c2c3c(cc(Cl)c2c1Cl)CN(CC1CCCNC1)S(=O)(=O)N3` (stereo not shown) [Compound 10, 6,7-dichloro-N-methyl-3-(piperidin-3-ylmethyl)-1,3,4,9-tetrahydro-[1,2,6]thiadiazino[4,3-g]indole-8-carboxamide 2,2-dioxide] returned an IC50 in experiment [1] of 2090 nM. The EC50 in experiment [2] was over 25000 nM.
The corresponding values for `CNC(=O)c1[nH]c2c3c(cc(Cl)c2c1Cl)CN(CC1CCCN(C(=O)OC(C)(C)C)C1)S(=O)(=O)N3` (stereo not shown) [Compound 11, tert-butyl 3-((6,7-dichloro-8-(methylcarbamoyl)-2,2-dioxido-4,9-dihydro-[1,2,6]thiadiazino[4,3-g]indol-3(1H)-yl)methyl)piperidine-1-carboxylate] are 1440 nM and over 25000 nM.
The corresponding values for `CNC(=O)c1[nH]c2c3c(cc(Cl)c2c1Cl)CN(CC1CCCN(C(C)=O)C1)S(=O)(=O)N3` (stereo not shown) [Compound 12, 3-((1-acetylpiperidin-3-yl)methyl)-6,7-dichloro-N-methyl-1,3,4,9-tetrahydro-[1,2,6]thiadiazino[4,3-g]indole-8-carboxamide 2,2-dioxide] are 679 nM and over 25000 nM.
The corresponding values for `COCCCN1Cc2cc(Cl)c3c(Cl)c(C(=O)OC)[nH]c3c2NS1(=O)=O` [Compound 13, methyl 6,7-dichloro-3-(3-methoxypropyl)-1,3,4,9-tetrahydro-[1,2,6]thiadiazino[4,3-g]indole-8-carboxylate 2,2-dioxide] are 1300 nM and over 25000 nM.
In turn, `CCOC(=O)c1[nH]c2c3c(cc(Cl)c2c1Cl)CN(CCCOC)S(=O)(=O)N3` [Compound 14, ethyl 6,7-dichloro-3-(3-methoxypropyl)-1,3,4,9-tetrahydro-[1,2,6]thiadiazino[4,3-g]indole-8-carboxylate 2,2-dioxide] returned an IC50 in experiment [1] of 2050 nM. In addition, the EC50 in experiment [2] stood at 2510 nM.
The corresponding values for `CNC(=O)c1[nH]c2c3c(cc(Cl)c2c1Cl)CN(CCCOC)S(=O)(=O)N3` [Compound 15, 6,7-dichloro-3-(3-methoxypropyl)-N-methyl-1,3,4,9-tetrahydro-[1,2,6]thiadiazino[4,3-g]indole-8-carboxamide 2,2-dioxide] are 1280 nM and over 25000 nM.
`COCCCN1Cc2cc(Cl)c3c(Cl)c(CCCC(=O)O)[nH]c3c2NS1(=O)=O` [Compound 18, 4-(6,7-dichloro-3-(3-methoxypropyl)-2,2-dioxido-1,3,4,9-tetrahydro-[1,2,6]thiadiazino[4,3-g]indol-8-yl)butanoic acid] came in with an IC50 in experiment [1] of 652 nM. Also, the EC50 in experiment [2] was over 25000 nM.
Regarding `COCCCN1Cc2cc(Cl)c3c(Cl)c(CCCC(N)=O)[nH]c3c2NS1(=O)=O` [Compound 19, 4-(6,7-dichloro-3-(3-methoxypropyl)-2,2-dioxido-1,3,4,9-tetrahydro-[1,2,6]thiadiazino[4,3-g]indol-8-yl)butanamide], the IC50 in experiment [1] turned out to be 824 nM. The EC50 in experiment [2] was over 25000 nM.
The corresponding values for `CC(=O)N1CCCC(CN2Cc3cc(Cl)c4c(Cl)c(CCCC(N)=O)[nH]c4c3NS2(=O)=O)C1` (stereo not shown) [Compound 20, 4-(3-((1-acetylpiperidin-3-yl)methyl)-6,7-dichloro-2,2-dioxido-1,3,4,9-tetrahydro-[1,2,6]thiadiazino[4,3-g]indol-8-yl)butanamide] are 105 nM and over 25000 nM.
The corresponding values for `CC(C)(C)OC(=O)N1CCCC(CN2Cc3cc(Cl)c4c(Cl)c(CCCC(N)=O)[nH]c4c3NS2(=O)=O)C1` (stereo not shown) [Compound 22, tert-butyl 3-((8-(4-amino-4-oxobutyl)-6,7-dichloro-2,2-dioxido-4,9-dihydro-[1,2,6]thiadiazino[4,3-g]indol-3(1H)-yl)methyl)piperidine-1-carboxylate] are 5780 nM and over 25000 nM.
The corresponding values for `O=C(O)CCCc1[nH]c2c3c(cc(Cl)c2c1Cl)CN(CC1CCCNC1)S(=O)(=O)N3` (stereo not shown) [Compound 23, 4-(6,7-dichloro-2,2-dioxido-3-(piperidin-3-ylmethyl)-1,3,4,9-tetrahydro-[1,2,6]thiadiazino[4,3-g]indol-8-yl)butanoic acid] are 277 nM and over 25000 nM.
